Source: patent publication US12708630B2, “Combined therapy of 4′-thio-5-aza-2′-deoxycytidine and Venetoclax” (PINOTBIO, INC., priority 2021, dated 2026)

Tests used:
[1] = tested on: p15 tumor suppressor gene; test: p15 tumor suppressor gene re-expression (RT-PCR) in MV4-11 cells; assay type: cell-based; settings: for p15 mRNA re-expression: MV4-11 cell line
Experimental: Therefore, to determine the re-expression of tumor suppressor genes through epigenetic regulation mechanisms induced by DNMT1 inhibition upon Aza-T-dCyd (NTX-301) treatment, MV4-11 cells, an AML cell line, were treated with Aza-T-dCyd at different concentrations. […] Table 1 below compares the degree of p15 mRNA re-expression after DNMT1 inhibitor (Aza-T-dCyd/Decitabine) treatment in the MV4-11 cell line, an AML cell (fold increase from 0 nM is shown).

[2] = tested on: 5637; test: drug activity profiling cytotoxicity; assay type: cell-based; settings: 5637 cell line, Bladder; read-out: Aza-T-dCyd IC50
Experimental: (§1) To obtain a biomarker for Aza-T-dCyd, drug activity profiling analysis was performed to evaluate the cytotoxicity of 200 cell lines.
(§2) The drug responsiveness analysis of Aza-T-dCyd through drug activity profiling and genomic analysis of 200 cell lines confirmed the potent efficacy of Aza-T-dCyd in various solid tumors (Table 2).

[3] = tested on: 647-V; test: drug activity profiling cytotoxicity; assay type: cell-based; settings: Homo sapiens; 647-V cell line, Bladder; read-out: Aza-T-dCyd IC50
Experimental: as §1, §2

[4] = tested on: 786-O; test: drug activity profiling cytotoxicity; assay type: cell-based; settings: Homo sapiens, 786-0; 786-O cell line, Kidney; read-out: Aza-T-dCyd IC50
Experimental: as §1, §2

[5] = tested on: BT20; test: drug activity profiling cytotoxicity; assay type: cell-based; settings: Homo sapiens, BT-20; BT20 cell line, Breast; read-out: Aza-T-dCyd IC50
Experimental: as §1, §2

[6] = tested on: Cal 27; test: drug activity profiling cytotoxicity; assay type: cell-based; settings: Homo sapiens; Cal 27 cell line, Head and Neck; read-out: Aza-T-dCyd IC50
Experimental: as §1, §2

[7] = tested on: H9; test: drug activity profiling cytotoxicity; assay type: cell-based; settings: Homo sapiens; H9 cell line, T-cell Lymphoma; read-out: Aza-T-dCyd IC50
Experimental: as §1, §2

[8] = tested on: Hs 688(A).T; test: drug activity profiling cytotoxicity; assay type: cell-based; settings: Hs 688(A).T cell line, Skin (Melanoma); read-out: Aza-T-dCyd IC50
Experimental: as §1, §2

[9] = tested on: KATO III; test: drug activity profiling cytotoxicity; assay type: cell-based; settings: Homo sapiens; KATO III cell line, Stomach; read-out: Aza-T-dCyd IC50
Experimental: as §1, §2

[10] = tested on: LS411N; test: drug activity profiling cytotoxicity; assay type: cell-based; settings: Homo sapiens, LS-411N; LS411N cell line, Colon; read-out: Aza-T-dCyd IC50
Experimental: as §1, §2

[11] = tested on: MOLT-4; test: drug activity profiling cytotoxicity; assay type: cell-based; settings: Homo sapiens; MOLT-4 cell line, ALL; read-out: Aza-T-dCyd IC50
Experimental: as §1, §2

[12] = tested on: PSN-1; test: drug activity profiling cytotoxicity; assay type: cell-based; settings: Homo sapiens, PSN1; PSN-1 cell line, Pancreas; read-out: Aza-T-dCyd IC50
Experimental: as §1, §2

[13] = tested on: RPMI 8226; test: drug activity profiling cytotoxicity; assay type: cell-based; settings: Homo sapiens; RPMI 8226 cell line, B-cell myeloma; read-out: Aza-T-dCyd IC50
Experimental: as §1, §2

[14] = tested on: SCC-9; test: drug activity profiling cytotoxicity; assay type: cell-based; settings: Homo sapiens; SCC-9 cell line, Head and Neck; read-out: Aza-T-dCyd IC50
Experimental: as §1, §2

[15] = tested on: SK-PN-DW; test: drug activity profiling cytotoxicity; assay type: cell-based; settings: SK-PN-DW cell line, Sarcoma; read-out: Aza-T-dCyd IC50
Experimental: as §1, §2

[16] = tested on: SK-UT-1; test: drug activity profiling cytotoxicity; assay type: cell-based; settings: Homo sapiens; SK-UT-1 cell line, Sarcoma; read-out: Aza-T-dCyd IC50
Experimental: as §1, §2

[17] = tested on: SKO-007; test: drug activity profiling cytotoxicity; assay type: cell-based; settings: SKO-007 cell line, B-cell myeloma; read-out: Aza-T-dCyd IC50
Experimental: as §1, §2

[18] = tested on: SW1463; test: drug activity profiling cytotoxicity; assay type: cell-based; settings: Homo sapiens; SW1463 cell line, Colon; read-out: Aza-T-dCyd IC50
Experimental: as §1, §2

[19] = tested on: UM-UC-3; test: drug activity profiling cytotoxicity; assay type: cell-based; settings: Homo sapiens, UMUC3; UM-UC-3 cell line, Bladder; read-out: Aza-T-dCyd IC50
Experimental: as §1, §2

[20] = GLP dog toxicology study; assay type: in vivo; settings: dog, 0.15, 0.5 and 1.0 mg/kg per day
Experimental: GLP-Tox studies have been conducted in rats and dogs, with 2 cycles of QD×5d at PO.
In a GLP dog toxicology study, Aza-T-dCyd was administered at 0.15, 0.5, and 1.0 mg/kg (3, 10, and 20 mg/m^2) per day. […] The maximum tolerated dose (MTD) was between 0.5 and 1 mg/kg (10~20 mg/m^2) per day, the highest non-toxic dose (HNSTD) was 0.5 mg/kg (10 mg/m^2) per day, and the no observed adverse effect level (NOAEL) was <0.15 mg/kg (3) mg/m^2) per day.

[21] = tested on: MDS/AML model; test: AUC exposure versus efficacy in the MDS/AML model; assay type: in vivo
[22] = Human PK simulation / human dose projection; settings: 16 mg/day human dose
Experimental: The human dose of NTX-301 should be divided by 3 or 4 to adjust the mouse exposure.
(§3) The 96 mg/day must be divided by 3 or 4, resulting in 24 to 32 mg/day.
This was a safe and effective dose in mice.
Furthermore, based on the results of the combination with Venetoclax in the mouse model, an effective dose of 0.5 to 1.0 mg/kg was determined, which translates to a human dose of 8 to 16 mg+Venetoclax.

[23] = Mouse AUC used for the human PK simulation; settings: in vivo, mice, dose of 2.0 mg/kg
Experimental: as §3

[24] = tested on: cytidine deaminase; test: Degradation by cytidine deaminase
Source text: Decitabine/Azacytidine is susceptible to metabolism by cytidine deaminases in the body, resulting in an unstable PK profile that limits its efficacy.

## Nc1ncn([C@H]2CC(O)[C@@H](CO)S2)c(=O)n1 (stereo partly drawn) [Aza-T-dCyd, 4′-thio-5-aza-2′-deoxycytidine]
[1]; 6 nM
  p15 mRNA re-expression: 1.4 ± 0.19 fold increase from 0 nM
[1]; 20 nM
  p15 mRNA re-expression: 1.7 ± 0.38 fold increase from 0 nM
[1]; 60 nM
  p15 mRNA re-expression: 2.6 ± 0.89 fold increase from 0 nM
[1]; 200 nM
  p15 mRNA re-expression: 6.1 ± 0.86 fold increase from 0 nM
[1]; MV4-11 cells
  p15 upregulation compared with decitabine: induced p15 upregulation better than decitabine
[1]; MV4-11 cells, 60 nM and 200 nM
  expression of p15 tumor suppressor gene (quantitative RT-PCR): significantly increased
[1]; MV4-11 cells, different concentrations, FIG. 14
  p15 mRNA re-expression (RT-PCR): strong re-expression of p15 mRNA
[2]
  IC50: 0.296 µM
[3]
  IC50: 0.408 µM
[4]
  IC50: 0.249 µM
[5]
  IC50: > 10 µM
[6]
  IC50: 0.319 µM
[7]
  IC50: 0.468 µM
[8]
  IC50: > 10 µM
[9]
  IC50: 0.807 µM
[10]
  IC50: 0.265 µM
[11]
  IC50: 0.035 µM
[12]
  IC50: 0.191 µM
[13]
  IC50: 3.27 µM
[14]
  IC50: 1.83 µM
[15]
  IC50: 0.847 µM
[16]
  IC50: 0.343 µM
[17]
  IC50: 4.29 µM
[18]
  IC50: 0.303 µM
[19]
  IC50: 0.289 µM
[20]
  target organs: bone marrow, thymus, gastrointestinal tract, tonsils, and testes
[21]; MDS/AML model
  AUC value at which efficacy is shown: 60 ng·h/mL
  AUC value of best therapeutic efficacy: 200 to 250 ng·h/mL
[21]; most sensitive species
  AUC of best efficacy relative to the HNSTD: about 25%
  AUC of best efficacy relative to the NOAEL value: about 50%
[22]
  human AUC converted to the mouse AUC value (factor of 3-4): 0.15 to 0.2 µg·h/mL
[23]
  AUC: 0.369 µg·h/mL
[24]
  rate of degradation by cytidine deaminase: slower rate of degradation by cytidine deaminase
